The text below walks through data of patent US20230310624A1, “AFFIBODY-CYTOTOXIN CONJUGATE FOR ACTIVE TARGETED THERAPY OF TUMORS, NANOPARTICLE THEREOF, PREPARATION METHOD THEREOF AND APPLICATION THEREOF” (priority 2020, published 2023).

Where a SMILES comes first, the peptide text is derived from it. [ ]: non-standard residue; d: D form. The star is where a group is joined. Dolaproine = CO[C@@H]([C@@H]1CCCN1)[C@@H](C)C(=O)O; Dil = CC[C@H](C)[C@H](NC)[C@@H](CC(=O)O)OC; X1 = C[C@@H](N*)[C@@H](O)c1ccccc1; NMeV = CN[C@H](C(=O)O)C(C)C

The conditions of data set [1]: in rats; cited from earlier work.
Data set [2] deals with SKOV-3 tumor. The data set can be described thus: long-term cycle imaging in SKOV-3 tumor-bearing nude mice. Type of data set: in vivo. The procedure:
A cell suspension of SKOV-3 cells in logarithmic growth phase is prepared at a concentration of 4.0×10^6 cells/mL, and inoculated subcutaneously into the right anterior axillary of nude mice, 200 μL per mouse; when the volume of tumor is around 500 mm^3, two mice are randomly selected as a control group and an experimental group. […] After 4 h and 12 h of injection, ZKKS-Mulaurora imaging system is used to take pictures and analyze the fluorescence intensity of the whole body of the mice.

The subject of data set [3] is SKOV-3 tumor. The data set can be described thus: therapeutic effects on tumors of SKOV-3 tumor-bearing nude mice. Type of data set: in vivo. The procedure: A cell suspension of SKOV-3 cells in logarithmic growth phase is prepared at a concentration of 4.0><10^6 cells/mL, and inoculated subcutaneously into the right anterior axillary of nude mice, 200 μL per mouse; when the volume of tumor is around 100 mm^3, the mice are randomly selected into 4 groups, 5 in each group, which are respectively a PBS control group, a MMAE 0.6 mg/kg group, a ZHER2:342-MMAE nanoparticle group (the content of MMAE is 0.4 mg/kg), and a ZHER2:342-MMAE nanoparticle group (the content of MMAE is 0.6 mg/kg), wherein 200 μl PBS is injected for the PBS group, 0.6 mg/kg of MMAE is injected for the MMAE 0.6 mg/kg group, ZHER2:342-MMAE (containing 0.4 mg/kg MMAE) is injected for the ZHER2:342-MMAE group (containing 0.4 mg/kg MMAE), and ZHER2:342-MMAE (the content of MMAE is 0.6 mg/kg) is injected for the ZHER2:342-MMAE group (the content of MMAE is 0.6 mg/kg), once every 3 days. After each administration, the survival of tumor-bearing nude mice is observed, and the body weight and tumor size of the mice are measured and photographed for preservation.

Regarding `CC(=O)O[C@H]1C(=O)[C@@]2(C)[C@H]([C@H](OC(=O)c3ccccc3)[C@]3(O)C[C@H](OC(=O)[C@H](O)[C@@H](NC(=O)c4ccccc4)c4ccccc4)C(C)=C1C3(C)C)[C@]1(OC(C)=O)CO[C@@H]1C[C@@H]2O` [paclitaxel], the blood half-life period in data set [1] was 1.1 h.
As for cyanine dye 5.5 [Cy5.5], the whole-body fluorescence distribution entry in the data set on SKOV-3 tumor [2] (after 4 hours of injection) is recorded as “no obvious presence in the mouse body”; in the data set with SKOV-3 tumor [2] (after 12 hours) it was “basically completely metabolized”.
Consider `CC[C@H](C)[C@@H]([C@@H](CC(=O)N1CCC[C@H]1[C@H](OC)[C@@H](C)C(=O)N[C@H](C)[C@@H](O)c1ccccc1)OC)N(C)C(=O)[C@@H](NC(=O)[C@@H](NC)C(C)C)C(C)C` [MMAE, monomethyl auristatin E] (H-[NMeV]V[Dil][Dolaproine]-X1), for which, in the data set on SKOV-3 tumor [3] (MMAE 0.6 mg/kg, after administration), the “body weight of the mice” value is listed as “drops sharply”. In addition, in the data set on SKOV-3 tumor [3] (MMAE (content) 0.6 mg/kg, once every 3 days), the “survival of tumor-bearing nude mice” value is given as “all died”.
